Measurements reported in patent US20090143450A1, “METHOD FOR TREATING CENTRAL PAIN SYNDROM OR FOR INDUCING CENTRALLY GENERATED PAIN IN AN ANIMAL MODEL” (UNIVERSITY OF MARYLAND, BALTIMORE, priority 2005, published 2009).

Key:
CA1 cells = test: Plateau potentials evoked by glutamate photolysis on CA1 cell dendrites in hippocampal slice cultures; format: cell-based; conditions: compared with control CA1 cells
From the text: It may be expected based on previous studies in the laboratory of the present inventor that partial denervation and removal of the majority of the excitatory input to area CA1 would result in a quiescent population of cells. In fact, local stimulation within area CA1 triggers prolonged, abnormally oscillatory synaptic responses in lesioned cultures that are never seen in normally innervated tissue (FIG. 1, top row), but only with a delay of 7 or more days after the injury (Wei et al., 2003). The reason is […] that denervation increases glutamate receptor expression in CA1 cells, akin to the well known phenomenon of denervation suprasensitivity in muscle. To confirm, the laboratory of the present inventor used photolysis of caged glutamate to compare the responses of CA1 cell dendrites in lesioned and unlesioned cultures.
In control cultures, distal, terminal dendritic branches of CA1 cells respond to weak photolysis of glutamate with passive subthreshold depolarizations. Stronger glutamate applications, however, trigger all-or-none Ca^2+-sensitive responses that are called plateau potentials (Wei et al., 2001). […] Plateau potentials, in contrast, are accompanied by Ca^2+ signals that can be seen throughout the stimulated dendrite within milliseconds, indicative of their rapid electrical propagation along the entire stimulated branch.

[1] = system: animals with lesioned spinothalamic tracts; test: von Frey filament test for allodynia after spinothalamic tract transection; format: in vivo, rat; conditions: 500 mg/kg intraperitoneally; FIG. 4B
Method: (§1) Spinothalamic tract transection. The spinothalamic tract is transected bilaterally at the level of the thoracic/lumbar border, thereby severing the ascending pathways conveying somatosensory, thermal and nociceptive information to the cortex via the thalamus. Male, adult Sprague-Dawley rats (ca. 200 gm) are anesthetized with pentobarbital and a T8 laminectomy is performed. The dura is opened with the tip of a 21 g. syringe needle to expose the spinal cord. The spinal cord is then lifted and rotated using a fine, sterile glass rod, and the ventral lateral pain pathways are severed electrolytically using a 1 MΩ sharpened tungsten needle and a 45 V pulse for 1 min. The lesion is packed with a small piece of sterile gelfoam. The overlying muscles and skin are closed and sutured, and the animal is allowed to recover on a 37° C. heating pad. Sham-operated controls undergo a laminectomy without dural penetration or spinal injury. This spinal transection procedure is a useful model of central pain syndrome where increased pain sensitivity and allodynia were observed. At various times after the lesion, standard behavioral tests were completed to assay the threshold for a stimulus to be perceived as painful, and allodynia was performed on awake, behaving animals. […] The paw withdrawal latency is automatically recorded when the rat withdraws its paw from the stimulus. […]

[2] = system: animals with lesioned spinothalamic tracts; test: Paw withdrawal latency test for hyperalgesia after spinothalamic tract transection; format: in vivo, rat; conditions: 500 mg/kg intraperitoneally; FIG. 4A
Method: as §1

| Compound | prolongation of plateau potentials in denervated CA1 cells (CA1 cells) | allodynia (von Frey's test) [1] | hyperalgesia (paw withdrawal latency) [2] |
| --- | --- | --- | --- |
| O=C(O)CN(CC(=O)O)c1ccccc1OCCOc1ccccc1N(CC(=O)O)CC(=O)O [BAPTA] | occluded |  |  |
| CC[N+](CC)(CC)CC [TEA] | occluded |  |  |
| CCC1(C)CC(=O)NC1=O (stereo not shown) [ethosuximide, 2-methyl-2-ethyl succinimide] |  | reduced transiently | reduced transiently |
